Test results reported in patent US20240239790A1, “7-Morpholino-1,6-Naphthyridin-5-yl Derivatives and Pharmaceutical Compositions Thereof Useful as DNA-PK Inhibitor” (adMare Therapeutics Society, priority 2021, published 2024).
Read-outs that look alike come from different tables or passages of the source.

Experiments:
DNA-PK = target: T1, DNA-PK (Homo sapiens, UniProt P78527); assay: DNA-PK Assay for Biochemical Enzymatic Inhibition (ADP Glo Kinase assay); settings: DNA-PK enzyme, Table 1
T1 construct: purchased Invitrogen PR9107A
Method in brief: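 Human DNA-PK (25 ng) preincubated 15 min with compounds (ten three-fold dilutions) in HEPES pH 7.5, MgCl2, KCl, calf thymus DNA buffer, then substrate 434.4 μM and ATP 64.4 μM (final) for 60 min at room temperature. ADP-Glo luminescence; percent inhibition fitted by four-parameter regression for IC50.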

[1] = system: pDNA-PK induction in HCT116 tumour spheroids; assay: Multicellular tumour spheroid + radiation, pDNA-PK (ser2056) inhibition, immunohistochemical endpoint, HCT116; assay type: cell-based; settings: Homo sapiens, HCT-116, 20 Gy, 2 hours following radiation, 20% O2
Method in brief: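 HCT116 spheroids (~0.5 mm) in MEM/10% FBS, 20% O2, 37° C., pre-incubated 1 h with compound (10 or 5 μM down to 3.5 nM), irradiated 20 Gy, then 2 h further with compound. Cryosections immunostained for pDNA-PK ser2056; EC50 is concentration halving radiation-induced pDNA-PK.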

[2] = Hepatocyte Stability Assay, mouse hepatocytes; assay type: in vitro ADME; settings: for hepatocyte CLint at 1 uM: male, CD-1, cryopreserved hepatocytes, pH 7.3, mouse hepatocytes 0.7 million cells per mL, 1 uM compound; for Hepatocyte Stability Mouse % rem. 120 min: mouse hepatocytes
Description: (§1) Cryopreserved mouse hepatocytes were obtained from a pool of 10 or more male CD-1 mice. Cryopreserved human hepatocytes were obtained from a pool of 10 or more donors of mixed gender. Final hepatocyte density was 0.7 million viable cells per mL and test compound concentration was 1 uM with a maximum of 0.01% DMSO. Cryopreserved hepatocytes were thawed, washed, and resuspended in Krebs-Heinslet buffer (pH 7.3). The reaction was initiated by adding the test compound into cell suspension and incubated for 0, […], 1, 1.5, and 2 h, respectively, at 37° C./5% C02. The reaction was stopped by adding acetonitrile into the incubation mixture. Samples were then mixed, transferred completely to another 96-well plate, and centrifuged. Supernatants were used for HPLC-MS/MS analysis. […] Peak areas corresponding to the test compound were recorded.

[3] = Hepatocyte Stability Assay, human hepatocytes; assay type: in vitro ADME; settings: for hepatocyte CLint at 1 uM: both sexes, cryopreserved hepatocytes, pH 7.3, human hepatocytes 0.7 million cells per mL, 1 uM compound; for Hepatocyte Stability Human % rem. 120 min: human hepatocytes
Description: as §1

[4] = Example 9 Study 2, read-out: Spheroid Cell line: HCT116 Immunohistochemical endpoint pDNA-PK inhibition EC50
[5] = Spheroid, Cell Line: HCT115 (so in the source), Example 7, read-out: EC50, Immunohistochemical endpoint, pDNA-PK inhibition

SMILES | IC50 (DNA-PK) | EC50 [1, 4] | EC50 [1, 5] | hepatocyte CLint at 1 uM [2] | Hepatocyte Stability Mouse % rem. 120 min [2] | hepatocyte CLint at 1 uM [3] | Hepatocyte Stability Human % rem. 120 min [3]
CN(C)C(=O)Cn1ccc2nc(N[C@H]3CC[C@@H](Oc4nc(N5CCOCC5)cc5ncccc45)CC3)ncc21 [Compound 86, N,N-Dimethyl-2-(2-(((1s,4s)-4-((7-morpholino-1,6-naphthyridin-5-yl)oxy)cyclohexyl)amino)-5H-pyrrolo[3,2-d]pyrimidin-5-yl)acetamide] | < 0.5 nM | 10 to 500 nM | 10 to 500 nM | < 8.2 µL/min/1e6 cells | H (% remaining = 75-100%) | < 8.2 µL/min/1e6 cells | H (% remaining = 75-100%)
O=c1[nH]c2cnc(N[C@H]3CC[C@@H](Oc4nc(N5CCOCC5)cc5ncccc45)CC3)nc2n1C1CCOCC1 [Compound 95, 2-(((1s,4s)-4-((7-Morpholino-1,6-naphthyridin-5-yl)oxy)cyclohexyl)amino)-9-(tetrahydro-2H-pyran-4-yl)-7,9-dihydro-8H-purin-8-one] | 0.5 to 1 nM | 10 to 500 nM | 10 to 500 nM | > 8.2 µL/min/1e6 cells | F (% remaining = 25-50%) | > 8.2 µL/min/1e6 cells | F (% remaining = 25-50%)
Cn1c(=O)n(C2CCOCC2)c2nc(N[C@H]3CC[C@@H](Oc4nc(N5CCOCC5)cc5ncccc45)CC3)ncc21 [Compound 96, 7-Methyl-2-(((1s,4s)-4-((7-morpholino-1,6-naphthyridin-5-yl)oxy)cyclohexyl)amino)-9-(tetrahydro-2H-pyran-4-yl)-7,9-dihydro-8H-purin-8-one] | < 0.5 nM | 500 to 1000 nM | 500 to 1000 nM | < 8.2 µL/min/1e6 cells | G (% remaining = 50-75%) | > 8.2 µL/min/1e6 cells | F (% remaining = 25-50%)
CN(C)C(=O)Cn1c(=O)n(C2CCOCC2)c2nc(N[C@H]3CC[C@@H](Oc4nc(N5CCOCC5)cc5ncccc45)CC3)ncc21 [Compound 97, N,N-Dimethyl-2-(2-(((1s,4s)-4-((7-morpholino-1,6-naphthyridin-5-yl)oxy)cyclohexyl)amino)-8-oxo-9-(tetrahydro-2H-pyran-4-yl)-8,9-dihydro-7H-purin-7-yl)acetamide] | < 0.5 nM | 10 to 500 nM | 10 to 500 nM | < 8.2 µL/min/1e6 cells | H (% remaining = 75-100%) | < 8.2 µL/min/1e6 cells | G (% remaining = 50-75%)
O=C(Cn1c(=O)n(C2CCOCC2)c2nc(N[C@H]3CC[C@@H](Oc4nc(N5CCOCC5)cc5ncccc45)CC3)ncc21)N1CCOCC1 [Compound 98, 2-(((1s,4s)-4-((7-Morpholino-1,6-naphthyridin-5-yl)oxy)cyclohexyl)amino)-7-(2-morpholino-2-oxoethyl)-9-(tetrahydro-2H-pyran-4-yl)-7,9-dihydro-8H-purin-8-one] | < 0.5 nM | 10 to 500 nM | 10 to 500 nM | < 8.2 µL/min/1e6 cells | G (% remaining = 50-75%) | > 8.2 µL/min/1e6 cells | F (% remaining = 25-50%)
O=C(Cn1c(=O)n(C2CCOCC2)c2nc(N[C@H]3CC[C@@H](Oc4nc(N5CCOCC5)cc5ncccc45)CC3)ncc21)N1CCC1 [Compound 99, 7-(2-(Azetidin-1-yl)-2-oxoethyl)-2-(((1s,4s)-4-((7-morpholino-1,6-naphthyridin-5-yl)oxy)cyclohexyl)amino)-9-(tetrahydro-2H-pyran-4-yl)-7,9-dihydro-8H-purin-8-one] | < 0.5 nM | 10 to 500 nM | 10 to 500 nM | < 8.2 µL/min/1e6 cells | G (% remaining = 50-75%) | > 8.2 µL/min/1e6 cells | F (% remaining = 25-50%)
Cn1c(=O)[nH]c2cnc(N[C@H]3CC[C@@H](Oc4nc(N5CCOCC5)cc5ncccc45)CC3)nc21 [Compound 100, 9-Methyl-2-(((1s,4s)-4-((7-morpholino-1,6-naphthyridin-5-yl)oxy)cyclohexyl)amino)-7,9-dihydro-8H-purin-8-one] | < 0.5 nM | 10 to 500 nM | 10 to 500 nM | > 8.2 µL/min/1e6 cells | E (% remaining = 0-25%) | > 8.2 µL/min/1e6 cells | E (% remaining = 0-25%)
Cn1c(=O)n(C)c2nc(N[C@H]3CC[C@@H](Oc4nc(N5CCOCC5)cc5ncccc45)CC3)ncc21 [Compound 101, 7,9-Dimethyl-2-(((1s,4s)-4-((7-morpholino-1,6-naphthyridin-5-yl)oxy)cyclohexyl)amino)-7,9-dihydro-8H-purin-8-one] | < 0.5 nM | 10 to 500 nM | 10 to 500 nM | > 8.2 µL/min/1e6 cells | F (% remaining = 25-50%) | > 8.2 µL/min/1e6 cells | F (% remaining = 25-50%)
CN(C)C(=O)Cn1c(=O)n(C)c2nc(N[C@H]3CC[C@@H](Oc4nc(N5CCOCC5)cc5ncccc45)CC3)ncc21 [Compound 102, N,N-Dimethyl-2-(9-methyl-2-(((1s,4s)-4-((7-morpholino-1,6-naphthyridin-5-yl)oxy)cyclohexyl)amino)-8-oxo-8,9-dihydro-7H-purin-7-yl)acetamide] | < 0.5 nM | 10 to 500 nM | 10 to 500 nM | < 8.2 µL/min/1e6 cells | H (% remaining = 75-100%) | < 8.2 µL/min/1e6 cells | G (% remaining = 50-75%)
CN(C)C(=O)COc1ccc(C(=O)N[C@H]2CC[C@@H](Oc3nc(N4CCOCC4)cc4ncccc34)CC2)cn1 [Compound 117, 6-(2-(dimethylamino)-2-oxoethoxy)-N-((1s,4s)-4-((7-morpholino-1,6-naphthyridin-5-yl)oxy)cyclohexyl)nicotinamide] | 0.5 to 1 nM | 500 to 1000 nM | 500 to 1000 nM | < 8.2 µL/min/1e6 cells | G (% remaining = 50-75%) | < 8.2 µL/min/1e6 cells | G (% remaining = 50-75%)
CN(C)C(=O)Cn1ccc(C(=O)N[C@H]2CC[C@@H](Oc3nc(N4CCOCC4)cc4ncccc34)CC2)c1 [Compound 141, 1-(2-(dimethylamino)-2-oxoethyl)-N-((1s,4s)-4-((7-morpholino-1,6-naphthyridin-5-yl)oxy)cyclohexyl)-1H-pyrrole-3-carboxamide] | < 0.5 nM |  | 10 to 500 nM | < 8.2 µL/min/1e6 cells | G (% remaining = 50-75%) | < 8.2 µL/min/1e6 cells | G (% remaining = 50-75%)
CN(C)C(=O)COc1cnc(N[C@H]2CC[C@@H](Oc3nc(N4CCOCC4)cc4ncc(NS(C)(=O)=O)cc34)CC2)nc1 [Compound 182, N,N-dimethyl-2-((2-(((1s,4s)-4-((3-(methylsulfonamido)-7-morpholino-1,6-naphthyridin-5-yl)oxy)cyclohexyl)amino)pyrimidin-5-yl)oxy)acetamide] | < 0.5 nM | 10 to 500 nM | 10 to 500 nM | < 8.2 µL/min/1e6 cells | H (% remaining = 75-100%) | < 8.2 µL/min/1e6 cells | H (% remaining = 75-100%)
